In general, IC50 refers to the point on the concentration scale where inhibition reaches its midpoint.

The target of the assay is one or more of HDAC-4, HDAC-5, HDAC-6, HDAC-7, HDAC-8, HDAC-9, HDAC-10 and HDAC-11. The experiment in a line: Inhibition of histone deacetylase enzymatic activity (summary statement over isoforms). Particulars: Table 3, selected examples; HDAC isoform not given. In kind it is biochemical. The procedure: The following protocol is used to assay the compounds of the invention.
The mixture is pre-incubated for 5 minutes at room temperature. The reaction is started by bringing the temperature to 37° C. and adding 15 μL substrate. Total reaction volume is 50 μL.
A 30 mM stock of Boc-Lys(trifluoroacetyl)-AMC substrate is prepared in DMSO. […] Reaction is started by adding 18 μL Boc-Lys(trifluoroacetyl)-AMC substrate and incubating at 37° C. for 20-30 minutes. The reaction is stopped by adding 50 μL trypsin (1 mg/mL) and a known HDAC inhibitor.

In the case of `O=C(NO)C(Sc1ccnc2cc(C(F)(F)F)ccc12)c1ccccc1` (stereo not drawn) [Compound 2-49, N-hydroxy-2-phenyl-2-(7-(trifluoromethyl)quinolin-4-ylthio)acetamide], the IC50 is below 1 µM.
Take `O=C(NO)C(c1ccccc1)c1ccc(N2CCCC2)cc1` (stereo not drawn) [Compound 1-41, N-hydroxy-2-phenyl-2-(4-(pyrrolidin-1-yl)phenyl)acetamide]: the IC50 is below 1 µM.
In the case of `C=CCCOc1ccc(C(C(=O)NO)c2ccccc2)cc1` (stereo not drawn) [Compound 3-49, 2-(4-(but-3-enyloxy)phenyl)-N-hydroxy-2-phenylacetamide], the IC50 was below 1 µM.
Molecule `O=C(NO)C(c1ccccc1)c1ccc(-n2cccn2)cc1` (stereo not drawn) [Compound 5-72, 2-(4-(1H-pyrazol-1-yl)phenyl)-N-hydroxy-2-phenylacetamide] returned an IC50 below 1 µM.
Molecule `O=C(CCC1CCCCC1)Nc1cccc(C(C(=O)NO)c2ccccc2)c1` (stereo not drawn) [Compound 2-71, 3-cyclohexyl-N-(3-(2-(hydroxyamino)-2-oxo-1-phenylethyl)phenyl)propanamide] showed an IC50 below 1 µM.
Molecule `O=C(NO)C(c1ccccc1)c1cccc(-c2ccc(Cl)cc2)c1` (stereo not drawn) [Compound 2-103, 2-(4′-chlorobiphenyl-3-yl)-N-hydroxy-2-phenylacetamide] returned an IC50 below 1 µM.
In turn, `O=C(NO)C(c1ccccc1)c1ccc(-c2ncccc2F)cc1` (stereo not drawn) [Compound 5-74, 2-(4-(3-fluoropyridin-2-yl)phenyl)-N-hydroxy-2-phenylacetamide] yielded a half-inhibitory concentration (IC50) below 1 µM.
Then `O=C(NO)C(Cc1ccccc1)c1ccccc1` (stereo not drawn) [Compound 1-11, N-hydroxy-2,3-diphenylpropanamide], with 1 to 15 µM; and `O=C(NO)C(c1ccccc1)N1CCc2[nH]c3ccc(F)cc3c2C1` (stereo not drawn) [Compound 5-16, 2-(8-fluoro-3,4-dihydro-1H-pyrido[4,3-b]indol-2(5H)-yl)-N-hydroxy-2-phenylacetamide], with 1 to 15 µM; and `COc1ccccc1-c1nnc(C(C(=O)NO)c2ccccc2)s1` (stereo not drawn) [Compound 1-38, N-hydroxy-2-(5-(2-methoxyphenyl)-1,3,4-thiadiazol-2-yl)-2-phenylacetamide], with below 1 µM.
To `CCCC(=O)N1CCCN(C(C(=O)NO)c2ccccc2)CC1` (stereo not drawn) [Compound 2-22, 2-(4-butyryl-1,4-diazepan-1-yl)-N-hydroxy-2-phenylacetamide] belongs 1 to 15 µM; to `O=C(NO)C(c1ccccc1)N1CCCCC1` (stereo not drawn) [Compound 1-4, N-hydroxy-2-phenyl-2-(piperidin-1-yl)acetamide], below 1 µM; to `O=C(Nc1ccc(C(C(=O)NO)c2ccccc2)cc1)C1CCCCC1` (stereo not drawn) [Compound 2-57, N-(4-(2-(hydroxyamino)-2-oxo-1-phenylethyl)phenyl)cyclohexanecarboxamide], below 1 µM.
`O=C(NO)C(Sc1nc2cccnc2s1)c1ccccc1` (stereo not drawn) [Compound 5-46, N-hydroxy-2-phenyl-2-(thiazolo[5,4-b]pyridin-2-ylthio)acetamide] yielded an IC50 below 1 µM.
Regarding `O=C(NO)C(c1ccccc1)c1ccc(OCc2ccccc2F)cc1` (stereo not drawn) [Compound 3-60, 2-(4-(2-fluorobenzyloxy)phenyl)-N-hydroxy-2-phenylacetamide], the IC50 was below 1 µM.
Then `C#CCOc1ccc(C(C(=O)NO)c2ccccc2)cc1` (stereo not drawn) [Compound 3-45, N-hydroxy-2-phenyl-2-(4-(prop-2-ynyloxy)phenyl)acetamide], with below 1 µM; and `CN(C)C(=O)c1ccc(-c2cccc(C(C(=O)NO)c3ccccc3)c2)cc1` (stereo not drawn) [Compound 2-109, 3′-(2-(hydroxyamino)-2-oxo-1-phenylethyl)-N,N-dimethylbiphenyl-4-carboxamide], with below 1 µM; and `O=C(NO)C(c1ccccc1)N1CCC(c2c[nH]c3ccccc23)CC1` (stereo not drawn) [Compound 1-34, 2-(4-(1H-indol-3-yl)piperidin-1-yl)-N-hydroxy-2-phenylacetamide], with below 1 µM.
With `O=C(NO)C(c1ccccc1)c1ccc(OCc2ccc(F)cc2F)cc1` (stereo not drawn) [Compound 3-67, 2-(4-(2,4-difluorobenzyloxy)phenyl)-N-hydroxy-2-phenylacetamide], the IC50 was below 1 µM.
Then `CCC(=O)ONC(=O)C(c1ccccc1)c1ccc(N2CCOCC2)cc1` (stereo not drawn) [Compound 5-114, 2-(4-morpholinophenyl)-2-phenyl-N-(propionyloxy)acetamide], with 1 to 15 µM; and `O=C(NO)C(c1ccccc1)N1CCN(c2ccccc2O)CC1` (stereo not drawn) [Compound 5-103, N-hydroxy-2-(4-(2-hydroxyphenyl)piperazin-1-yl)-2-phenylacetamide], with 1 to 15 µM.
With `O=C(NO)C(c1ccccc1)c1ccc(OCC(=O)N2CCOCC2)cc1` (stereo not drawn) [Compound 2-11, N-hydroxy-2-(4-(2-morpholino-2-oxoethoxy)phenyl)-2-phenylacetamide], the IC50 is below 1 µM.
Then `CC(Oc1ccc(C(C(=O)NO)c2ccccc2)cc1)c1ccccc1` (stereo not drawn) [Compound 3-59, N-hydroxy-2-phenyl-2-(4-(1-phenylethoxy)phenyl)acetamide], with below 1 µM; and `O=C(NO)C(c1ccccc1)n1cc(-c2ccccc2)nn1` (stereo not drawn) [Compound 1-26, N-hydroxy-2-phenyl-2-(4-phenyl-1H-1,2,3-triazol-1-yl)acetamide], with below 1 µM; and `Cc1ccccc1C(C(=O)NO)c1ccc(N2CCOCC2)cc1` (stereo not drawn) [Compound 6-19, N-hydroxy-2-(4-morpholionphenyl)-2-o-tolylacetamide], with below 1 µM.
To `CN1CCCC1CCOc1cccc(C(C(=O)NO)c2ccccc2)c1` (stereo not drawn) [Compound 3-20, N-hydroxy-2-(3-(2-(1-methylpyrrolidin-2-yl)ethoxy)phenyl)-2-phenylacetamide] belongs below 1 µM; to `O=C(NO)C(c1ccccc1)c1cccc(OCC2CC2)c1` (stereo not drawn) [Compound 3-25, 2-(3-(cyclopropylmethoxy)phenyl)-N-hydroxy-2-phenylacetamide], 1 to 15 µM.
As for `CCCC(=O)N1CCN(C(C(=O)NO)c2ccccc2)CC1` (stereo not drawn) [Compound 2-23, 2-(4-butyrylpiperazin-1-yl)-N-hydroxy-2-phenylacetamide], the IC50 lay within 1 to 15 µM.
In the case of `O=C(NO)C(c1ccccc1)c1ccc(OC2CCCC2)cc1` (stereo not drawn) [Compound 3-53, 2-(4-(cyclopentyloxy)phenyl)-N-hydroxy-2-phenylacetamide], the IC50 is below 1 µM.
Consider `O=C(Nc1ccc(C(C(=O)NO)c2ccccc2)cc1)c1ccccc1` (stereo not drawn) [Compound 2-55, N-(4-(2-(hydroxyamino)-2-oxo-1-phenylethyl)phenyl)benzamide], for which the half-maximal inhibitory concentration (IC50) was below 1 µM.
Then `O=C(NO)C(Oc1ccc(F)cc1Cl)c1ccccc1` (stereo not drawn) [Compound 7-33, 2-(2-chloro-4-fluorophenoxy)-N-hydroxy-2-phenylacetamide], with 1 to 15 µM.
To `O=C(NO)C(c1ccccc1)c1cccc(NCc2ccccc2)c1` (stereo not drawn) [Compound 2-79, 2-(3-(benzylamino)phenyl)-N-hydroxy-2-phenylacetamide] belongs 1 to 15 µM; to `C=CCOc1cccc(C(C(=O)NO)c2ccccc2)c1` (stereo not drawn) [Compound 3-24, 2-(3-(allyloxy)phenyl)-N-hydroxy-2-phenylacetamide], 1 to 15 µM; to `O=C(NO)C(c1ccccc1)c1ccc(N2CCC(N3CCCC3)CC2)cc1` (stereo not drawn) [Compound 3-83, N-hydroxy-2-phenyl-2-(4-(4-(pyrrolidin-1-yl)piperidin-1-yl)phenyl)acetamide], below 1 µM.
`O=C(COc1ccccc1)Nc1ccc(C(C(=O)NO)c2ccccc2)cc1` (stereo not drawn) [Compound 2-67, N-hydroxy-2-(4-(2-phenoxyacetamido)phenyl)-2-phenylacetamide] returned an IC50 below 1 µM.
Consider `O=C(NO)C(c1ccccc1)c1cccc(OCc2cccc(Cl)c2)c1` (stereo not drawn) [Compound 3-10, 2-(3-(3-chlorobenzyloxy)phenyl)-N-hydroxy-2-phenylacetamide], for which the IC50 is below 1 µM.
In turn, “2-(4-(benzo[d][1,3]dioxol-5-ylmethylbenzo[d][1,3]dioxol-5-ylmethoxy)phenyl)-N-hydroxy-2-phenylacetamide [Compound 3-11]” registered an IC50 below 1 µM.
To `Cc1ccsc1C(=O)Nc1ccc(C(C(=O)NO)c2ccccc2)cc1` (stereo not drawn) [Compound 2-65, N-(4-(2-(hydroxyamino)-2-oxo-1-phenylethyl)phenyl)-3-methylthiophene-2-carboxamide] belongs below 1 µM.
To `O=C(NO)C(c1ccccc1)N1CCC(c2nc3ccccc3o2)CC1` (stereo not drawn) [Compound 5-35, 2-(4-(benzo[d]oxazol-2-yl)piperidin-1-yl)-N-hydroxy-2-phenylacetamide] belongs below 1 µM.
In the case of `O=C(NO)C(c1ccccc1)N1CCC(c2nc(-c3ccc4c(c3)OCO4)no2)CC1` (stereo not drawn) [Compound 2-44, 2-(4-(3-(benzo[d][1,3]dioxol-5-yl)-1,2,4-oxadiazol-5-yl)piperidin-1-yl)-N-hydroxy-2-phenylacetamide], the IC50 was below 1 µM.
To `O=C(NO)C(Oc1cccc2ccccc12)c1ccccc1` (stereo not drawn) [Compound 7-31, N-hydroxy-2-(naphthalen-1-yloxy)-2-phenylacetamide] belongs below 1 µM; to `O=C(Nc1ccc(C(C(=O)NO)c2ccccc2)cc1)c1ccnc(Cl)c1` (stereo not drawn) [Compound 2-74, 2-chloro-N-(4-(2-(hydroxyamino)-2-oxo-1-phenylethyl)phenyl)isonicotinamide], below 1 µM; to `O=C(NO)C(c1ccccc1)c1nc2ccc(-c3cccs3)cc2[nH]1` (stereo not drawn) [Compound 1-20, N-hydroxy-2-phenyl-2-(6-(thiophen-2-yl)-1H-benzo[d]imidazol-2-yl)acetamide], below 1 µM.
To `O=C(NO)C(Oc1ccccc1F)c1ccccc1` (stereo not drawn) [Compound 7-5, 2-(2-fluorophenoxy)-N-hydroxy-2-phenylacetamide] belongs 1 to 15 µM.
Then `CS(=O)(=O)c1ccc(-c2cccc(C(C(=O)NO)c3ccccc3)c2)cc1` (stereo not drawn) [Compound 2-110, N-hydroxy-2-(4′-(methylsulfonyl)biphenyl-3-yl)-2-phenylacetamide], with below 1 µM.

Source of the values: patent publication US9096565B2, “Inhibitors of histone deacetylase” (MethylGene Inc., priority 2007, dated 2015).
